# Measurements published in patent publication US20040033517A1, “Compositions and methods relating to endothelial cell signaling using the protease activated receptor (PAR1)” (priority 2002, published 2004).
# Like-named read-outs stand apart in the source and are kept apart here.
# How the values were obtained:
# [1] = system: human umbilical vein endothelial cells HUVEC-C; assay type: cell-based; settings: endothelial cells
# From the text: Microarray Analysis. […] Total RNA was isolated followed by reverse transcription. Purified double stranded cDNA was in vitro transcribed in the presence of biotinylated dUTP and dCTP, fragmented cRNA was hybridized to the HG-U95Av2 array (Affymetrix, Santa Clara, Calif.), followed by staining with streptavidin-phycoerythrin. Arrays were scanned and analyzed using GeneChip3.1 software. […] An average fold-induction for the three independent experiments was obtained by calculating the means of the logarithm of the individual fold-increases for each agonist.
# [2] = system: thrombin-mediated PAR1 signaling; settings: 100 nM hirudin; M. Riewald et al., Blood 97: 3109, 2001; cited from earlier work
substance,measurement,setting,value
Thrombin,"Induction (log 2), A1743606 wg51108.x1 Homo sapiens cDNA",[1],−0.05 log 2
same,"Induction (log 2), AB002450 Homo sapiens mRNA from chromosome 5q21-22, clone-A3-A",[1],0.45 log 2
same,"Induction (log 2), AB003184 Homo sapiens mRNA for ISLR",[1],0.05 log 2
same,"Induction (log 2), AB012229 fructose-6-phosphate,2-kinase/fructose-2,6-bisphosphatase",[1],0.25 log 2
same,"Induction (log 2), AF000421 TTF-1 interacting peptide 12 mRNA",[1],0.20 log 2
same,"Induction (log 2), AF015451 Homo sapiens Usurpin-beta mRNA",[1],0.45 log 2
same,"Induction (log 2), AF022375 Homo sapiens vascular endothelial growth factor mRNA",[1],0.75 log 2
same,"Induction (log 2), AF024710 Homo sapiens vascular endothelial growth factor (VEGF) mRNA",[1],0.90 log 2
same,"Induction (log 2), AF042083 BH3 interacting domain death agonist (BID) mRNA",[1],0.20 log 2
same,"Induction (log 2), AF094481 trinucleotide repeat DNA binding protein p20-CGGBP (CGGBP) gene",[1],0.50 log 2
same,"Induction (log 2), AF095154 Homo sapiens C1q-related factor mRNA",[1],0.10 log 2
same,"Induction (log 2), AF098462 Homo sapiens stanniocalcin-related protein mRNA",[1],1.00 log 2
same,"Induction (log 2), AJ000480 Homo sapiens mRNA for C8FW phosphoprotein",[1],1.15 log 2
same,"Induction (log 2), Cluster Incl U88629 Human RNA polymerase II elongation factor ELL2",[1],0.70 log 2
same,"Induction (log 2), Cluster Incl X66360 H.sapiens mRNA PCTAIRE-2 for serine/threonine protein kinase",[1],0.35 log 2
same,"Induction (log 2), D29990 Human mRNA for cationic amino acid transporter 2",[1],0.75 log 2
same,"Induction (log 2), D38449 Human mRNA for G protein-coupled receptor",[1],0.10 log 2
same,"Induction (log 2), D49817 6-phosphofructo-2-kinase/fructose-2, 6-bisphosphatase mRNA",[1],0.20 log 2
same,"Induction (log 2), D78579 Homo sapiens mRNA for neuron derived orphan receptor",[1],1.55 log 2
same,"Induction (log 2), J04102 Human erythroblastosis virus oncogene homolog 2 (ets-2) mRNA",[1],0.50 log 2
same,"Induction (log 2), L07261 Human alpha adducin mRNA",[1],0.10 log 2
same,"Induction (log 2), L19871 Human activating transcription factor 3 (ATF3) mRNA",[1],1.10 log 2
same,"Induction (log 2), L38487 Human estrogen receptor-related protein (hERRa1) mRNA",[1],0.10 log 2
same,"Induction (log 2), M14648 Human cell adhesion protein (vitronectin) receptor alpha subunit mRNA",[1],0.60 log 2
same,"Induction (log 2), M19481 Human follistatin gene",[1],1.30 log 2
same,"Induction (log 2), M22489 Human bone morphogenetic protein 2A (BMP-2A) mRNA",[1],0.90 log 2
same,"Induction (log 2), M28130 Human interleukin 8 (IL8) gene",[1],0.40 log 2
same,"Induction (log 2), M29039 Human transactivator (jun-B) gene",[1],0.60 log 2
same,"Induction (log 2), M36820 Human cytokine (GRO-beta) mRNA",[1],0.35 log 2
same,"Induction (log 2), M59964 Human stem cell factor mRNA",[1],0.75 log 2
same,"Induction (log 2), M64349 Human cyclin D (cyclin D1) mRNA",[1],0.00 log 2
same,"Induction (log 2), M96995 epidermal growth factor receptor-binding protein GRB2 (EGFRBP-GRB2) mRNA",[1],0.05 log 2
same,"Induction (log 2), Neurofibromatosis 2 Tumor Suppressor",[1],0.55 log 2
same,"Induction (log 2), Tyrosine Phosphatase, Epsilon",[1],1.40 log 2
same,"Induction (log 2), U08015 HumanNF-ATc mRNA",[1],0.55 log 2
same,"Induction (log 2), U12471 Human thrombospondin-1 gene",[1],0.70 log 2
same,"Induction (log 2), U12767 Human mitogen induced nuclear orphan receptor (MINOR) mRNA",[1],1.15 log 2
same,"Induction (log 2), U15932 Human dual-specificity protein phosphatase mRNA",[1],0.60 log 2
same,"Induction (log 2), U18671 Human Stat2 gene",[1],0.05 log 2
same,"Induction (log 2), U20816 Human nuclear factor kappa-B2 (NF-KB2) gene",[1],0.70 log 2
same,"Induction (log 2), U23070 Human putative transmembrane protein (nma) mRNA",[1],1.10 log 2
same,"Induction (log 2), U25997 Homo sapiens stanniocalcin precursor (STC) mRNA",[1],1.10 log 2
same,"Induction (log 2), U33838 Human NF-kappa-B p65delta3 mRNA",[1],0.10 log 2
same,"Induction (log 2), U42391 Human myosin-IXb mRNA",[1],−0.15 log 2
same,"Induction (log 2), U65093 Human msg1-related gene 1 (mrg1) mRNA",[1],0.95 log 2
same,"Induction (log 2), U72066 Homo sapiens CtBP interacting protein CtIP (CtIP) mRNA",[1],0.70 log 2
same,"Induction (log 2), U76368 Human cationic amino acid transporter-2A (ATRC2) mRNA",[1],0.75 log 2
same,"Induction (log 2), U83981 Homo sapiens apoptosis associated protein (GADD34) mRNA",[1],0.50 log 2
same,"Induction (log 2), U88629/FEATURE Human RNA polymerase II elongation factor ELL2",[1],0.75 log 2
same,"Induction (log 2), W28170 43a12 Homo sapiens cDNA",[1],0.15 log 2
same,"Induction (log 2), W28257 44c1 Homo sapiens cDNA",[1],0.20 log 2
same,"Induction (log 2), X02469 Human mRNA for p53 cellular tumor antigen",[1],−0.10 log 2
same,"Induction (log 2), X14787 Human mRNA for thrombospondin",[1],0.40 log 2
same,"Induction (log 2), X14798 Human DNA for c-ets-1 proto-oncogene",[1],0.75 log 2
same,"Induction (log 2), X16706 Human fra-2 mRNA",[1],0.50 log 2
same,"Induction (log 2), X51345 Human jun-B mRNA for JUN-B protein",[1],0.75 log 2
same,"Induction (log 2), X51435 Human PRDII-BF1 gene for a DNA-binding protein",[1],0.85 log 2
same,"Induction (log 2), X66360/FEATURE H.sapiens mRNA PCTAIRE-2 for serine/threonine protein kinase",[1],0.65 log 2
same,"Induction (log 2), X68277 H.sapiens CL 100 mRNA for protein tyrosine phosphatase",[1],1.75 log 2
same,"Induction (log 2), X69086 H.sapiens mRNA for utrophin",[1],0.60 log 2
same,"Induction (log 2), X69699 H.sapiens Pax8 mRNA",[1],0.10 log 2
same,"Induction (log 2), X98248 H.sapiens mRNA for sortilin",[1],−0.15 log 2
same,"Induction (log 2), Z12173 H.sapiens GNS mRNA encoding glucosamine-6-sulphatase",[1],0.60 log 2
same,"Induction (log 2), Z12830 H.sapiens mRNA for SSR alpha subunit",[1],0.40 log 2
same,"Induction (log 2), Z23115 H.sapiens bc1-xL mRNA",[1],0.10 log 2
same,"Induction (log 2), Z29083 H.sapiens 5T4 gene for 5T4 Oncofetal antigen",[1],0.10 log 2
same,"Induction (log 2), Z48579 H.sapiens mRNA for disintegrin-metalloprotease (partial)",[1],0.20 log 2
same,"Induction (log 2), D13540 Homo sapiens SH-PTP3 mRNA for protein-tyrosine phosphatase",[1]; first entry (r8),0.65 log 2
same,"Induction (log 2), W28616 49b9 Homo sapiens cDNA",[1]; first entry (r15),0.30 log 2
same,"Induction (log 2), W28616 49b9 Homo sapiens cDNA",[1]; second entry (r30),−0.05 log 2
same,"Induction (log 2), D13540 Homo sapiens SH-PTP3 mRNA for protein-tyrosine phosphatase",[1]; second entry (r54),0.40 log 2
hirudin,Block of cell surface thrombin-mediated PAR1 signaling,[2],block all cell surface thrombin-mediated PAR1 signaling
